Assays:
SK-MEL-28 [1] = experiment: Cytopathic effects on cell cultures, inverted microscope; assay type: cell-based, human
Description: An experiment similar to the one described in the previous example was designed for the purpose of establishing whether idebenone inhibits melanogenesis in cells in culture, but in this case the cells were treated for only 1 day, whereas the results were evaluated on the third day.
An experiment similar to the one described in the previous example was designed for the purpose of establishing whether idebenone inhibits melanogenesis in cells in culture, but in this case the cells were treated for 2 days and the results were evaluated on the fourth day.
An experiment similar to the one described in the previous example was designed for the purpose of establishing whether idebenone inhibits melanogenesis in cells in culture, but in this case the cells were treated for 5 days and the results were evaluated on the fifth day.

SK-MEL-28 [2] = experiment: Cell number quantitation with violet crystal; assay type: cell-based, human
Description: Cells: The study was carried out using a cell line derived from human melanoma, provided by ABAC (Asociación Banco Argentino de Células—Cell Bank of Argentina), with melanin synthesis capability (SK-MEL-28, ATCC origin). […] Study of in vitro compounds: […] After 24 hours have lapsed, the medium was replaced with 990 μl of fresh medium. 10 μl of sterile vehicle (50% propylene glycol, 30% ethanol and 20% distilled water) containing different concentrations of the compounds to be evaluated were added to this fresh medium. […] On the fourth day, the cells were not treated, and the remaining adherent cells were assayed on the fifth day according to the methods described below. The cells were thus continuously exposed to the compounds under study for the 5 days the culture lasted. All the concentrations of the compounds were studied in triplicate, comparing the mean of the 3 wells treated with the compounds with those treated with the vehicle alone. Cell number quantitation with violet crystal: A stain with a violet crystal aqueous solution was used for the purpose of determining the number of cells adhering to the plastic surviving in vitro treatment by means of indirect methods. […] The dishes were stained for 5 minutes at room temperature on a rotary platform, with gentle stirring. Then the excess colorant was decanted by turning the dish over and the entire dish was submerged 4 times in distilled water in a suitable container. After rinsing, the dishes were turned over and allowed to drip on absorbent paper until the excess water was completely removed. […] The plates were finally placed on a rotary agitator for 30 minutes at room temperature. […] In order to determine the fraction of cells surviving treatment at a specific concentration of the experimental agent, the OD590 of the treated wells (average of three measurements) was divided by the OD590 of the wells used with a control vehicle (average of three measurements).

skin of nude adult mice [3] = experiment: Dermal capillary vessel diameters, mouse skin; assay type: in vivo; settings: topically applied
Description: (§1) Creams containing 5% and 2.5% w/w idebenone (IDB) in a neutral phase were prepared. Said creams and a cream having an identical formulation but without idebenone were applied on nude adult mice with 3 months of age. The cream with idebenone was applied on the right half of the body of the animals and the control cream on the left half according to the scheme detailed below. The animals were sacrificed 1, 2, 3 or 4 hours after applying the cream (p.a.). • Batch A: animal treated with 5% IDB (1 hour p.a.) • Batch B: animal treated with 2.5% IDB (1 hour p.a.) • Batch C: animal treated with 5% IDB (2 hours p.a.) • Batch D: animal treated with 2.5% IDB (2 hours p.a.) • Batch E: animal treated with 5% IDB (3 hours p.a.) • Batch F: animal treated with 2.5% IDB (3 hours p.a.) • Batch G: animal treated with 5% IDB (4 hours p.a.) • Batch H: animal treated with 2.5% IDB (4 hours p.a.)
(§2) Morphological and morphometric studies: Thickness of the epidermis, the horny layer, the papillary dermis and reticular dermis was measured in at least 10 different points, the result being expressed as the average of the 10 measurements. Capillary vessel diameter was also measured in at least 10 points, expressing them by means of their average. The measurements were carried out using a Quantimet 500+ (Leica) image processing equipment. […]

[4] = Arzneim. Forsch/drug res. 35 (II), 11, pp. 1704, 1985; cited from earlier work
skin of nude adult mice [5] = experiment: Epidermal and dermal morphometry, mouse skin; assay type: in vivo
Description: as §1, §2

Cytopathic effects (SK-MEL-28 [1]; remaining dilutions (−2 to −6), treated 1 day): no cytopathic effect whatsoever | Cytopathic effects (SK-MEL-28 [1]; −1 dilution, treated 1 day): cytopathic effects | Cytopathic effects (SK-MEL-28 [1]; −4, −5 and −6 dilutions, Example 8): No cytopathic effect was observed | Cytopathic effects (SK-MEL-28 [1]; −4, −5 and −6 dilutions, treated 2 days): No cytopathic effect was observed | Thicknesses of the papillary dermis and the reticular dermis (skin of nude adult mice [5]; nude mice skin, 5% and 2.5% IDB creams versus control): did not significantly vary
Structure (SMILES): COC1=C(OC)C(=O)C(CCCCCCCCCCO)=C(C)C1=O [idebenone, 6-(10-hydroxydecyl)-2,3-dimethoxy-5-methyl-1,4-benzoquinone]
Toxicity for cells (SK-MEL-28 [2]; SK-MEL-28, high concentrations): may be toxic for cells | Percentage of viable cells (SK-MEL-28 [2]; dilution −1, percentage of control vehicle): 52% | Percentage of viable cells (SK-MEL-28 [2]; dilution −2, percentage of control vehicle): 82% | Percentage of viable cells (SK-MEL-28 [2]; dilution −3, percentage of control vehicle): 98% | Percentage of viable cells (SK-MEL-28 [2]; dilution −4, percentage of control vehicle): 100% | Percentage of viable cells (SK-MEL-28 [2]; dilution −5, percentage of control vehicle): 100% | Effect on microcirculation vascular diameters (skin of nude adult mice [3]): does not substantially modify microcirculation vascular diameters | Toxic effects reported [4]: no significant toxic effects have been reported | Effect on epidermal thickness (skin of nude adult mice [5]; nude mice, topically applied): does not substantially modify epidermal thickness

— patent US20090060851A1, “USE OF IDEBENONE FOR THE PREPARATION OF A TOPICALLY-APPLIED DEPIGMENTATION COMPOSITION AND CORRESPONDING COMPOSITION” (priority 2005, published 2009)
